How the values were obtained:
[1] = biological target: T1, Ba/F3 BCR-FGFR1 (Homo sapiens, UniProt P11362); experiment: Ba/F3 cell viability assay (CellTiter-Glo 2.0); type: cell-based; settings: Ba/F3 cell data, BCR-FGFR1 fusion, 48 hours
T1 construct: BCR (fusion partner); host or cells: Ba/F3; the other entry of the earlier key: BCR (P11274, Breakpoint cluster region protein)

[2] = tested on: RT112/84; experiment: Cancer cell line cell viability assay (CellTiter-Glo 2.0); type: cell-based; settings: Homo sapiens; RT112/84 (FGFR3-fusion) cell viability, 72 hours
Excerpt: (§1) Experimental Purpose: To detect the change of intracellular ATP by Cell Titer-Glo® and to evaluate the inhibitory effect of the compounds on cancer cell lines by determining the in vitro IC50 value of the compounds.
(§2) Cell Titer-Glo® 2.0 Luminescent cell viability assay reagent was purchased from Promega (Madison, WI). RT112/84 and KG-1 cell lines were purchased from American Type Culture Collection (Manassas, VA). UM-UC-14 cell line was purchased from Sigma (St. Louis, MO). RT112/84, UM-UC-14, and KG-1 cells were cultured in RPMI1640 media supplemented with 10% fetal bovine serum. Cultures were maintained at 37° C. in a humidified atmosphere of 5% CO2 and 95% air.
(§3) Cell Viability Assay Procedure: Cells were plated in 96-well clear bottom/white plates (Corning #3903) at 10,000 cells/well in 100 μl of media, incubated overnight. The next day, test compound DMSO stock solutions were made at 10 mM and 2 μM final concentration.
(§4) Compounds were then added to cells in a 9-dose, […] dilution series starting at 30 μM with an HP 300e Digital Dispenser (each dose was applied in triplicate). DMSO was backfilled to each well up to 301 nL total volume of test compound+DMSO, and a total of 301 nL DMSO was added to a control/no test compound well in triplicate. The cells in cell culture plates were incubated with the compounds at 37° C. and 5% CO2 for 72 hours. Then 50 μl of Cell Titer Glo 2.0 reagent was added to each well of the cell culture plates. The contents were covered from light and mixed on an orbital shaker at room temperature for 10 min.
(§5) Luminescence was recorded by a Synergy H1 Microplate Reader (Biotek, Winooski, VT). Cells were assessed as a percentage of DMSO only treated control cells. Curves were plotted and IC50 values were calculated using the GraphPad Prism 8 program based on a sigmoidal dose-response equation (4 parameter).

[3] = tested on: KG-1; experiment: as above; type: cell-based; settings: Homo sapiens; KG-1 (FGFR1-fusion) cell viability, 72 hours
Excerpt: as §1, §2, §3, §4, §5

[4] = tested on: KatoIIII; experiment: as above; type: cell-based; settings: 72 hours
[5] = biological target: T2, Ba/F3 ETV5-FGFR4 (Homo sapiens, UniProt P22455); experiment: Ba/F3 cell viability assay (CellTiter-Glo 2.0); type: cell-based; settings: Ba/F3 cell data, ETV5-FGFR4 fusion, 48 hours
T2 construct: host or cells: Ba/F3; the other entry of the earlier key: ETV5 (P41161, ETS translocation variant 5)
T2 sequence (P22455 467-755 limits assumed): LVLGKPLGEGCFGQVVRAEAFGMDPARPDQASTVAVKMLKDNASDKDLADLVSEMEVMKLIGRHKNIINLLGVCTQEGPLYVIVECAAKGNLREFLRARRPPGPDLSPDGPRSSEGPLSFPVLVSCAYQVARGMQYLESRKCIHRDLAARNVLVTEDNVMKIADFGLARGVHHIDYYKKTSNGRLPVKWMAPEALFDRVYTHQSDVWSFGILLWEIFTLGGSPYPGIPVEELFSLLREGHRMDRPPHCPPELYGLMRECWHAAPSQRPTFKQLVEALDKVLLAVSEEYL
Excerpt: Experimental Purpose: Recombinant kinase fusions are transduced into parental Ba/F3, which becomes dependent upon this constitutive kinase activity for IL3-independent survival. Inhibition of kinase activity leads to cell death, which is monitored using CellTiter-Glo® 2.0 (Promega) which measures intracellular ATP concentration that in turn serves as a marker for viability. BCR-FGFR1 Ba/F3, BCR-FGFR2 and FGFR3-BAIAP2L1 Ba/F3 were obtained from Advanced Cellular Dynamics (Seattle, WA). ETV6-FGFR4 was obtained from Kyinno (Waltham, MA).
Cell Viability Assay Procedure: Cell Titer-Glo® 2.0 Luminescent cell viability assay reagent was purchased from Promega (Madison, WI). Ba/F3 cell lines were cultured in RPMI1640 media supplemented with 10% fetal bovine serum. Cultures were maintained at 37° C. in a humidified atmosphere of 5% CO2 and 95% air.
Cells were plated in 96-well clear bottom/white plates (Corning #3903) at 10,000 cells/well in 100 μl of media, incubated overnight. The next day, test compound DMSO stock solutions were made at 10 mM and 2 μM final concentration. Compounds were then added to cells in a 9-dose, 10-fold dilution series starting at 30 μM with an HP 300e Digital Dispenser (each dose was applied in triplicate). DMSO was backfilled to each well up to 301 nL total volume of test compound+DMSO, and a total of 301 nL DMSO was added to a control/no test compound well in triplicate. The cells in cell culture plates were incubated with the compounds at 37° C. and 5% CO2 for 48 hours. Then 50 μl of Cell Titer Glo 2.0 reagent was added to each well of the cell culture plates. The contents were covered from light and mixed on an orbital shaker at room temperature for 10 min. Luminescence was recorded by a Synergy H1 Microplate Reader (Biotek, Winooski, VT). Cells were assessed as a percentage of DMSO only treated control cells. Curves were plotted and IC50 values were calculated using the GraphPad Prism 8 program based on a sigmoidal dose-response equation (4 parameter).

[6] = biological target: T3, FGFR1 (Homo sapiens, UniProt P11362); experiment: Kinase binding assay (Kd), kinase-tagged T7 phage, affinity beads, qPCR; settings: in vitro binding assay, 11-point 3-fold dilution series
T3 construct: made in house; host or cells: E. coli (BL21-derived) infected with T7 phage
T3 sequence (P11362 22-822): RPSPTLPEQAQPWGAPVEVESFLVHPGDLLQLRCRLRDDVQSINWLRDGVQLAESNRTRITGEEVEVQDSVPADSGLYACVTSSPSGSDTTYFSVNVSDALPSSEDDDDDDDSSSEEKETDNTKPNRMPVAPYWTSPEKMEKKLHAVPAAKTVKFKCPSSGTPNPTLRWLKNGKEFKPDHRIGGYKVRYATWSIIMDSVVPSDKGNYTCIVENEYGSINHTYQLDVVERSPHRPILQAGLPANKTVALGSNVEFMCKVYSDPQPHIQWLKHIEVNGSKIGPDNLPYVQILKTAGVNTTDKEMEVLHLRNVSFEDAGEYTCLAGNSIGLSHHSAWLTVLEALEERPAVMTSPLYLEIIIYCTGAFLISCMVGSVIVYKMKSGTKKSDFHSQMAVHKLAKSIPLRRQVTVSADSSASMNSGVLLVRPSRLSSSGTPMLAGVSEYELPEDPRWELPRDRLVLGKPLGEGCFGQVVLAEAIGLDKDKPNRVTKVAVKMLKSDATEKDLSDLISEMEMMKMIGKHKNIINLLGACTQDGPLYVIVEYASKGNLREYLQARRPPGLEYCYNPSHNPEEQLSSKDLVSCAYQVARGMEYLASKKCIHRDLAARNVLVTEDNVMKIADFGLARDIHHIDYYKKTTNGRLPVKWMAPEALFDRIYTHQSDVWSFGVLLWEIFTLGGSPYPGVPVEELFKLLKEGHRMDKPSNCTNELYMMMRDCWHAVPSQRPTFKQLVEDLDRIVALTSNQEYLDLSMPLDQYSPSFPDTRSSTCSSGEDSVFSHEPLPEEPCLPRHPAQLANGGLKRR
Experimental: (§6) Kinase-tagged T7 phage strains were prepared in an E. coli host derived from the BL21 strain. E. coli were grown to log-phase and infected with T7 phage and incubated with shaking at 32° C. until lysis. The lysates were centrifuged and filtered to remove cell debris. Streptavidin-coated magnetic beads were treated with biotinylated small molecule ligands for 30 minutes at room temperature to generate affinity resins for kinase assays. The liganded beads were blocked with excess biotin and washed with blocking buffer SeaBlock (Pierce), 1% BSA, 0.05% Tween 20, 1 mM DTT to remove unbound ligand and to reduce non-specific binding. Binding reactions were assembled by combining kinases, liganded affinity beads, and test compounds in 1× binding buffer (20% SeaBlock, 0.17×PBS, 0.05% Tween 20, 6 mM DTT).
(§7) Test compounds were prepared as 111× stocks in 100% DMSO. Kds were determined using an 11-point 3-fold compound dilution series with three DMSO control points. All compounds for Kd measurements are distributed by acoustic transfer (non-contact dispensing) in 100% DMSO. The compounds were then diluted directly into the assays such that the final concentration of DMSO was 0.9%. All reactions performed in polypropylene 384-well plate. Each was a final volume of 0.02 ml. The assay plates were incubated at room temperature with shaking for 1 hour and the affinity beads were washed with wash buffer (1×PBS, 0.05% Tween 20). The beads were then re-suspended in elution buffer (1×PBS, 0.05% Tween 20, 0.5 μM non-biotinylated affinity ligand) and incubated at room temperature with shaking for 30 minutes. The kinase concentration in the eluates was measured by qPCR.
(§8) Binding constants were calculated with a standard dose-response curve using the Hill equation: […]
(§9) The Hill Slope was set to −1. Curves were fitted using a non-linear least square fit with the Levenberg-Marquardt algorithm.

[7] = biological target: T4, FGFR3 (V555M) (Homo sapiens, UniProt P22607, V555M); experiment: as above; settings: in vitro binding assay, 11-point 3-fold dilution series
T4 construct: made in house; host or cells: E. coli (BL21-derived) infected with T7 phage
T4 sequence (P22607 23-806 V555M): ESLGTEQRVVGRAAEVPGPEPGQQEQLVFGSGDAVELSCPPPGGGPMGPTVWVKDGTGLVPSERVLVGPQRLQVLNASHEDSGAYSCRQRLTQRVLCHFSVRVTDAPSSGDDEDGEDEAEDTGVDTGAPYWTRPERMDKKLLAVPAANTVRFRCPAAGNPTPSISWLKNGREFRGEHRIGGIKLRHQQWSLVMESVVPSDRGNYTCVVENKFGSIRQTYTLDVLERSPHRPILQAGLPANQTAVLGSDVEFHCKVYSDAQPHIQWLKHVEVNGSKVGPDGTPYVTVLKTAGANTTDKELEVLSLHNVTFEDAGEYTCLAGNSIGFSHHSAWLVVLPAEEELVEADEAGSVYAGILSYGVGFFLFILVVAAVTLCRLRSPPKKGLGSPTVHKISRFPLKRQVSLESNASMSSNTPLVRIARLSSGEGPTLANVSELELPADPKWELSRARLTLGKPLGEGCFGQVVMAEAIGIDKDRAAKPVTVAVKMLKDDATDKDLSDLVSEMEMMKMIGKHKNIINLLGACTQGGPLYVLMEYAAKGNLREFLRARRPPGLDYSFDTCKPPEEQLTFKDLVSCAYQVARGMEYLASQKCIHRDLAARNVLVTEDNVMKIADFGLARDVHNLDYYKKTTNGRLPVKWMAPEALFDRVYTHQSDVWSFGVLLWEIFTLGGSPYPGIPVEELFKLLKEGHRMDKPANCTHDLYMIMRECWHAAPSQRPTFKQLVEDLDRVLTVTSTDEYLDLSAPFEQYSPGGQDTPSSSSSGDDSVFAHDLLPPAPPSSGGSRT
Experimental: as §6, §7, §8, §9

[8] = biological target: T5, FGFR4 (Homo sapiens, UniProt P22455); experiment: as above; settings: in vitro binding assay, 11-point 3-fold dilution series
T5 construct: made in house; host or cells: E. coli (BL21-derived) infected with T7 phage
T5 sequence (P22455 22-802): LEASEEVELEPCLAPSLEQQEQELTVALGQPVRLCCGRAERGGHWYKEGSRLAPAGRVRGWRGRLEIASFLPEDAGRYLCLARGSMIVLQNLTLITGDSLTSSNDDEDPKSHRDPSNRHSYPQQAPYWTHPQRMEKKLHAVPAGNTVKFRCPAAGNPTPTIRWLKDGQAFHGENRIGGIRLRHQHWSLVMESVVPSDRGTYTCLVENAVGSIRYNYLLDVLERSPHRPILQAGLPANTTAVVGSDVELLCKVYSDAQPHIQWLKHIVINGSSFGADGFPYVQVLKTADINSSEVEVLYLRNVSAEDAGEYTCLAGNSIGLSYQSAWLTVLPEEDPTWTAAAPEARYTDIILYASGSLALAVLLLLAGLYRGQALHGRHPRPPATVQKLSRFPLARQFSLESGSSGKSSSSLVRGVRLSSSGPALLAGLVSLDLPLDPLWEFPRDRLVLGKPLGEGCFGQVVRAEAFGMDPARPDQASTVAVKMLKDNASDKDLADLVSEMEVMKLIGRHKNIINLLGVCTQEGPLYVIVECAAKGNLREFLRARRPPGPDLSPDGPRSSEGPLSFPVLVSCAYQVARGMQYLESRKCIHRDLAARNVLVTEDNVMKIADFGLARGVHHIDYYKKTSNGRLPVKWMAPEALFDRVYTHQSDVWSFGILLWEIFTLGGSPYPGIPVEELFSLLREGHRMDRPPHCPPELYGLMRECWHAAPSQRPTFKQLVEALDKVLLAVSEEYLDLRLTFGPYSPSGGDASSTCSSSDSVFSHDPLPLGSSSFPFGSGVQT
Experimental: as §6, §7, §8, §9

[9] = biological target: T6, FGFR2 (Homo sapiens, UniProt P21802); experiment: as above; settings: in vitro binding assay, 11-point 3-fold dilution series
T6 construct: made in house; host or cells: E. coli (BL21-derived) infected with T7 phage
T6 sequence (P21802 22-821): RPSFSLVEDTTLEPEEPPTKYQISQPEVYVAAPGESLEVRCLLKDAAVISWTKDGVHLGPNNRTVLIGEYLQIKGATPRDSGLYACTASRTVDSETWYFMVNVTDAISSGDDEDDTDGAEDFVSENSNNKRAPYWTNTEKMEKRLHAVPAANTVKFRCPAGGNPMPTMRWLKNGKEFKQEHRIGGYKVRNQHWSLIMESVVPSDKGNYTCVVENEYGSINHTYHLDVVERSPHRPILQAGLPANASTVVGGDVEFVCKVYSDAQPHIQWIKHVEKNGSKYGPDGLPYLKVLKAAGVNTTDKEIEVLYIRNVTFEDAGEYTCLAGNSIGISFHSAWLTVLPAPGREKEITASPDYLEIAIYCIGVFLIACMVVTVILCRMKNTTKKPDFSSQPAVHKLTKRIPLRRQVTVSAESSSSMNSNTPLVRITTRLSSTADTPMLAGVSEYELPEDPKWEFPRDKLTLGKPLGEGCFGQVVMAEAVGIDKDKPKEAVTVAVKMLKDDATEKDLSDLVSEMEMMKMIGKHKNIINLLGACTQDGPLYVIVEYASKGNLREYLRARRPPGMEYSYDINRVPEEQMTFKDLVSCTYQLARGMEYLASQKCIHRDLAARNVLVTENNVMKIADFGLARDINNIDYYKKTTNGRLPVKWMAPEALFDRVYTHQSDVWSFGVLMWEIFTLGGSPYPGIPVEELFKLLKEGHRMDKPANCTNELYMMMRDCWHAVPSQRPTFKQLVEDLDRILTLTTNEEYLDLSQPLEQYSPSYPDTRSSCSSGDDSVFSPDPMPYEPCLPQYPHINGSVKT
Experimental: as §6, §7, §8, §9

[10] = biological target: T7, FGFR3 (Homo sapiens, UniProt P22607); experiment: as above; settings: in vitro binding assay, 11-point 3-fold dilution series
T7 construct: made in house; host or cells: E. coli (BL21-derived) infected with T7 phage
T7 sequence (P22607 23-806): as the sequence (P22607 23-806 V555M) above, with M533V counted along it
Experimental: as §6, §7, §8, §9

[11] = biological target: T8, Ba/F3 FGFR3-BAIAP2L1 (Homo sapiens, UniProt P22607); experiment: Ba/F3 cell viability assay (CellTiter-Glo 2.0); type: cell-based; settings: Ba/F3 cell data, FGFR3-BAIAP2L1 fusion, 48 hours
T8 construct: BAIAP2L1 (fusion partner, Q9UHR4 if human); host or cells: Ba/F3; the other entry of the earlier key: BAIAP2L1 (Q9UHR4, BAR/IMD domain-containing adapter protein 2-like 1)
T8 sequence (P22607 397-758 limits assumed): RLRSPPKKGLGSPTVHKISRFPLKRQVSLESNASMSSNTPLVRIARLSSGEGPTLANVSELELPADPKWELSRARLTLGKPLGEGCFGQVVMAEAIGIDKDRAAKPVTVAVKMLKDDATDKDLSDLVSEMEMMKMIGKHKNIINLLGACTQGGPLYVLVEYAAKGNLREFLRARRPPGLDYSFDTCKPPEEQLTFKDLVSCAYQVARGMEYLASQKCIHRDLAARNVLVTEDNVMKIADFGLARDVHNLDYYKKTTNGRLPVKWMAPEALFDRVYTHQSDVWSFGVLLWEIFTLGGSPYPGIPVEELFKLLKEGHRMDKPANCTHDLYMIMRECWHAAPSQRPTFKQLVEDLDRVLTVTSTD

[12] = biological target: T9, Ba/F3 BCR-FGFR2 (Homo sapiens, UniProt P21802); experiment: Ba/F3 cell viability assay (CellTiter-Glo 2.0); type: cell-based; settings: Ba/F3 cell data, BCR-FGFR2 fusion, 48 hours
T9 construct: BCR (fusion partner); host or cells: Ba/F3; the other entry of the earlier key: BCR (P11274, Breakpoint cluster region protein)
T9 sequence (P21802 481-770 limits assumed): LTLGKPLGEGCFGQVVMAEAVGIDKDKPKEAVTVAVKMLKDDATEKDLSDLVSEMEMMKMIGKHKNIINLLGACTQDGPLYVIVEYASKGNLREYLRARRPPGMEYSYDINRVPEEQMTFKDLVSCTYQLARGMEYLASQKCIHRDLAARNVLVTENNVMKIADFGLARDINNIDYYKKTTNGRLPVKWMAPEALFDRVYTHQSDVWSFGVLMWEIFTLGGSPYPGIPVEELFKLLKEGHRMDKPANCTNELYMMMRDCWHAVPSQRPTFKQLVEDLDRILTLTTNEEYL

T1 sequence (P11362 478-767 limits assumed): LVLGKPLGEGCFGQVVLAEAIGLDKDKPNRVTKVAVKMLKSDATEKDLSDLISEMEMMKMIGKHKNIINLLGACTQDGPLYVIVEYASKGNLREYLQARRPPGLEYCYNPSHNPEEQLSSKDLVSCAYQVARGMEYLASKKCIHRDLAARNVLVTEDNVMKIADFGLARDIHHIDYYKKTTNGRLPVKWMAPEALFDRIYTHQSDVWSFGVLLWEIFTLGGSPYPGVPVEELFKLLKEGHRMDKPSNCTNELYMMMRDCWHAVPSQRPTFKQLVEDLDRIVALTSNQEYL

| IC50 [2] [nM] | IC50 [3] [nM] | IC50 [4] [nM] | Kd [6] [nM] | Kd [7] [nM] | Kd [8] [nM] | Kd [9] [nM] | Kd [10] [nM] | Compound | Kd [1] [nM] | Kd [5] [nM] | Kd [11] [nM] | Kd [12] [nM] |
| --- | --- | --- | --- | --- | --- | --- | --- | --- | --- | --- | --- | --- |
| 250 to 1000 | ≥ 1000 | 250 to 1000 | 0.1 to 100 | 0.1 to 100 | 0.1 to 100 | 0.1 to 100 | 0.1 to 100 | C=CC(=O)N1CCC2(CC1)CC(n1ncc(-c3cc(O[C@H](CO)c4ccc(F)cn4)c4c(C#N)cnn4c3)c1C)C2 [Example 9, (S)-6-(1-(7-acryloyl-7-azaspiro[3.5]nonan-2-yl)-5-methyl-1H-pyrazol-4-yl)-4-(1-(5-fluoropyridin-2-yl)-2-hydroxyethoxy)pyrazolo[1,5-a]pyridine-3-carbonitrile] | 250 to 1000 | 250 to 1000 | 0.1 to 100 | 100 to 250 |
| 100 to 250 | 0.1 to 100 | 100 to 250 | 0.1 to 100 | 0.1 to 100 | 0.1 to 100 | 0.1 to 100 | 0.1 to 100 | C=CC(=O)N1CCC2(CC1)CC(n1nnc(-c3cc(O[C@H](CO)c4ccc(F)cn4)c4c(C#N)cnn4c3)c1C)C2 [Example 13, (S)-6-(1-(7-acryloyl-7-azaspiro[3.5]nonan-2-yl)-5-methyl-1H-1,2,3-triazol-4-yl)-4-(1-(5-fluoropyridin-2-yl)-2-hydroxyethoxy)pyrazolo[1,5-a]pyridine-3-carbonitrile] | 250 to 1000 | 250 to 1000 | 0.1 to 100 | 100 to 250 |
| 250 to 1000 | 250 to 1000 | 250 to 1000 | 100 to 250 | 100 to 250 | 100 to 250 | 0.1 to 100 | 0.1 to 100 | C=CC(=O)N1CCC2(CC1)CC(n1ncc(-c3cc(OC(CO)c4ccn(C)n4)c4c(C#N)cnn4c3)c1C)C2 (stereo not drawn) [Example 14, 6-(1-(7-acryloyl-7-azaspiro[3.5]nonan-2-yl)-5-methyl-1H-pyrazol-4-yl)-4-(2-hydroxy-1-(1-methyl-1H-pyrazol-3-yl)ethoxy)pyrazolo[1,5-a]pyridine-3-carbonitrile] | 250 to 1000 | 250 to 1000 | 0.1 to 100 | 250 to 1000 |
| ≥ 1000 | ≥ 1000 | ≥ 1000 | 0.1 to 100 | 0.1 to 100 | 0.1 to 100 | 0.1 to 100 | 0.1 to 100 | C=CC(=O)N1CC(OC)(C(=O)N2CCC(n3nnc(-c4cc(O[C@H](CO)c5ccccn5)c5c(C#N)cnn5c4)c3C)CC2)C1 [Example 22, (S)-6-(1-(1-(1-acryloyl-3-methoxyazetidine-3-carbonyl)piperidin-4-yl)-5-methyl-1H-1,2,3-triazol-4-yl)-4-(2-hydroxy-1-(pyridin-2-yl)ethoxy)pyrazolo[1,5-a]pyridine-3-carbonitrile] | ≥ 1000 | ≥ 1000 | 0.1 to 100 | ≥ 1000 |
